According to patent US5573772A, “Methods for protecting tissues and organs from ischemic damage” (priority 1994, dated 1996):

System: isolated rabbit hearts
Test: Infarct size after 30 min coronary branch occlusion and 120 min reperfusion in isolated rabbit hearts, Example 1
Parameters: species or system rabbit (New Zealand white)
Conditions: for Infarct size compared with control group: ADO 10 uM or APNEA 50 nM, p<0.01
Method: These solutions were then diluted in Krebs buffer to the final concentration just before the experiments started. New Zealand white rabbits of either sex, between 1.4-2.4 kg, were anesthetized with intravenous sodium pentobarbital (30 mg/kg). The neck was opened and a tracheotomy was performed. The rabbits were ventilated with 100% oxygen via a positive pressure respirator (MD industries, Mobile, Ala.). Ventilation rate was 30-35 breaths per minute, and tidal volume was approximately 15 ml. A left thoracotomy was performed in the fourth intercostal space and pericardium was opened to expose the heart. A 2-0 silk suture with an RB taper needle was passed around a branch of the left coronary artery, and the end of the silk were threaded through a small vinyl tube to form a snare. The heads were quickly excised and mounted on a Langendorff apparatus and perfused at constant pressure with Krebs buffer containing (in mM) 118.5 NaCl, 4.7 KCl, 1.2 MgSO4, 1.2 K2 PO4, 24.3 NaHCO3, 2.5 CaCl2 and 10 glucose. […] The temperature of the perfusate was maintained at 37° C. The perfusion pressure was kept at 75 mm Hg. Pacing electrodes were placed on the right atrium and all hearts were paced at 200 beats/minute with pulses of 5 volts and 4 msec duration to keep the heart rate constant. A fluid-filled latex balloon connected to a transducer via PE240 tubing was inserted into the left ventricle. Balloon volume was adjusted to set the left ventricular diastolic pressure at 10 mm Hg at the beginning of the experiment. Total coronary artery flow was measured by timed collection of buffer from the chamber into a graduated cylinder. Regional ischemia was effected by pulling the snare tight and clamping the tube with a hemostat. Global ischemia was performed by clamping the inflow tubing of the Langendorff apparatus. Reperfusion was achieved by releasing the restriction. All hearts were allowed to equilibrate for 20 minutes before the experiments were started. Heart rate (HR), coronary flow (CF) and left ventricular developed pressure (LVDP) were recorded at the point just before and at the end of each treatment with the pacing momentarily turned off. […] The hearts were removed from the Langendorff apparatus, weighed and then frozen. The hearts were cut into 2 mm transverse slices. The slices were thawed and incubated in 1% triphenyl tetrazolium chloride (TTC) in pH 7.4 buffer for 20 minutes at 37° C. TTC reacts with NADH and dehydrogenase enzymes and stains all tissue still having them to a deep red color. […] After staining, the area of infarcted tissue (TTC negative tissue) and the risk zone (area lacking fluorescence under ultraviolet light) in each slice were traced. The area of infarct and risk zone were determined by planimetry of the tracing. The volume of infarcted myocardium and myocardium at risk was then calculated by multiplying the planimetered areas by the slice thickness. The animals were divided into 10 groups. The hearts in all groups were subjected to 30 minutes of coronary branch occlusion followed by 120 minutes of reperfusion. Control group (CON, n=10) only experienced the above-mentioned 30 minutes of regional ischemia while the preconditioned group (PC, n=12) received an additional 5 minutes of global ischemia plus 10 minutes of reperfusion prior to the 30 minute occlusion. In the adenosine group (ADO, n=6) and the APNEA group (APNEA, n=5), the hearts were exposed to 10 uM adenosine and 50 nM APNEA respectively, for 5 minutes as a substitute for ischemic preconditioning. The drug was allowed to washout for 10 minutes before the 30 minute ischemia was started. In groups receiving SPT, the blocker was included in the perfusate for 15 minutes at 100 uM starting 5 minutes before the exposure of ADO (ADO-SPT group, n=6) or APNEA (APNEA-SPT group, n=5) or 5 minutes before and after 5 minutes of preconditioning ischemia (PC-SPT group, n=5). […] All results are expressed as group mean±SEM. […]

Nc1ncnc2c1ncn2[C@@H]1O[C@H](CO)[C@@H](O)[C@H]1O [ADO, Adenosine]
Infarct size compared with control group: significantly smaller than those in the control group
Infarct size (area at risk infarcted) (ADO 10 uM, 5 minutes, control 29.4±2.9%, PC 10.8±2.8%): 11.4±2.1%

Nc1ccc(CCNc2ncnc3c2ncn3[C@@H]2O[C@H](CO)[C@@H](O)[C@H]2O)cc1 [APNEA, N^6-(2-(4-aminophenyl)ethyl) adenosine]
Infarct size compared with control group: significantly smaller than those in the control group
Infarct size (area at risk infarcted) (APNEA 50 nM, 5 minutes, control 29.4±2.9%): 11.9±2.3%

CCCn1c(=O)c2[nH]c(C3CCCC3)nc2n(CCC)c1=O [DPCPX, 8-cyclopentyl-1,3-dipropylxanthine]
Infarct size (area at risk infarcted) (DPCPX 200 nM + ADO 10 uM (ADO-DPCPX)): 14.4±7.0%
Infarct size (area at risk infarcted) (DPCPX 200 nM + APNEA 50 nM (APNEA-DPCPX)): 8.7±1.7%
Infarct size (area at risk infarcted) (DPCPX 200 nM + PC (PC-DPCPX)): 15.6±7.8%

Cn1c(=O)c2[nH]c(-c3ccc(S(=O)(=O)O)cc3)nc2n(C)c1=O [SPT, 8-(p-Sulfophenyl)-theophylline]
Infarct size (area at risk infarcted) (SPT 100 uM + ADO 10 uM (ADO-SPT)): 29.8±3.4%
Infarct size (area at risk infarcted) (SPT 100 uM + APNEA 50 nM (APNEA-SPT)): 32.8±3.3%
Infarct size (area at risk infarcted) (SPT 100 uM + PC (PC-SPT)): 33.8±2.4%
